What follows are molecules tested on ML-2 (assay: cell viability (% survival relative to DMSO control, bortezomib = 0%); higher = less cytotoxic). Conditions: 10 nM; 72 h.
Outline: (§1)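 Percent survival is reported as the mean of duplicate wells. Cells from 10 AML and 5 CML lines were plated in 384-well plates containing compounds at 1, 10, 100, 1000 or 10000 nM and kept for 72 h at 37 °C in 5% CO2. Readout used CellTiter-Glo luminescence, scaled so that vehicle equals 100% and a 10 µM positive control equals 0%.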
`CCCCCCCC/C=C\CCCCCCCC(=O)Nc1ccccc1` [Octadec-9-Enoic Acid Phenylamide] gave a cell viability of 105%. `CC[C@H](C)[C@H](N)C(=O)N1CCSC1` [P32/98] gave a cell viability of 102%. For `CC(=O)Nc1nc(C)c(-c2ccc(Cl)c(S(=O)(=O)NCCO)c2)s1` [PIK93], the cell viability was 98.8%. Work on `OC[C@H]1O[C@@H](n2cnc3c2N=CNC[C@H]3O)C[C@@H]1O` [Pentostatin] yielded a cell viability of 86.6%. With `CC(C)CC(=O)N[C@H](C(=O)N[C@H](C(=O)N[C@@H](CC(C)C)[C@@H](O)CC(=O)N[C@@H](C)C(=O)N[C@@H](CC(C)C)[C@@H](O)CC(=O)O)C(C)C)C(C)C` [Pepstatin A] the cell viability was 84.5%. In the case of `Cc1cccc(Nc2cc(Cl)nc(SCC(=O)O)n2)c1C` [Pirinixic acid], the cell viability is reported as 103%. `C[C@]12C=CC(=O)C=C1CC[C@@H]1[C@@H]2[C@@H](O)C[C@@]2(C)[C@H]1CC[C@]2(O)C(=O)CO` [Prednisolone] was tested, and the cell viability was 104%. `C=CCN(C)CCCCCCOc1ccc(C(=O)c2ccc(Br)cc2)c(F)c1.O=C(O)/C=C/C(=O)O` [Ro 48-8071 fumarate] showed a cell viability of 98.5%.

Same assay, conditions: 100 nM; 72 h
With `CN(Cc1cnc2nc(N)nc(N)c2n1)c1ccc(C(=O)N[C@@H](CCC(=O)O)C(=O)O)cc1` [Methotrexate] the cell viability was 3.59%. `COC(=O)c1cc2c(C(F)(F)F)cc(-c3ccccc3)cc2n1O` [NHI-2] gave a cell viability of 109%. With `CCCCCCCC/C=C\CCCCCCCC(=O)Nc1ccccc1` [Octadec-9-Enoic Acid Phenylamide] the cell viability was 99.9%. `CC[C@H](C)[C@H](N)C(=O)N1CCSC1` [P32/98] was tested, and the cell viability was 102%. In the case of `CC(=O)Nc1nc(C)c(-c2ccc(Cl)c(S(=O)(=O)NCCO)c2)s1` [PIK93], the cell viability is reported as 92.6%. `OC[C@H]1O[C@@H](n2cnc3c2N=CNC[C@H]3O)C[C@@H]1O` [Pentostatin] was tested, and the cell viability was 99.1%. Work on `CC(C)CC(=O)N[C@H](C(=O)N[C@H](C(=O)N[C@@H](CC(C)C)[C@@H](O)CC(=O)N[C@@H](C)C(=O)N[C@@H](CC(C)C)[C@@H](O)CC(=O)O)C(C)C)C(C)C` [Pepstatin A] yielded a cell viability of 105%. In the case of `Cc1cccc(Nc2cc(Cl)nc(SCC(=O)O)n2)c1C` [Pirinixic acid], the cell viability is reported as 105%. `C[C@]12C=CC(=O)C=C1CC[C@@H]1[C@@H]2[C@@H](O)C[C@@]2(C)[C@H]1CC[C@]2(O)C(=O)CO` [Prednisolone] was tested, and the cell viability was 115%. With `C=CCN(C)CCCCCCOc1ccc(C(=O)c2ccc(Br)cc2)c(F)c1.O=C(O)/C=C/C(=O)O` [Ro 48-8071 fumarate] the cell viability was 106%.

Same assay, conditions: 1000 nM; 72 h
`CN(Cc1cnc2nc(N)nc(N)c2n1)c1ccc(C(=O)N[C@@H](CCC(=O)O)C(=O)O)cc1` [Methotrexate] showed a cell viability of 3.44%. With `COC(=O)c1cc2c(C(F)(F)F)cc(-c3ccccc3)cc2n1O` [NHI-2] the cell viability was 102%. `CCCCCCCC/C=C\CCCCCCCC(=O)Nc1ccccc1` [Octadec-9-Enoic Acid Phenylamide] was tested, and the cell viability was 103%. `CC[C@H](C)[C@H](N)C(=O)N1CCSC1` [P32/98] was tested, and the cell viability was 103%. In the case of `CC(=O)Nc1nc(C)c(-c2ccc(Cl)c(S(=O)(=O)NCCO)c2)s1` [PIK93], the cell viability is reported as 38.3%. `OC[C@H]1O[C@@H](n2cnc3c2N=CNC[C@H]3O)C[C@@H]1O` [Pentostatin] was tested, and the cell viability was 108%. In the case of `CC(C)CC(=O)N[C@H](C(=O)N[C@H](C(=O)N[C@@H](CC(C)C)[C@@H](O)CC(=O)N[C@@H](C)C(=O)N[C@@H](CC(C)C)[C@@H](O)CC(=O)O)C(C)C)C(C)C` [Pepstatin A], the cell viability is reported as 106%. In the case of `Cc1cccc(Nc2cc(Cl)nc(SCC(=O)O)n2)c1C` [Pirinixic acid], the cell viability is reported as 105%. In the case of `C[C@]12C=CC(=O)C=C1CC[C@@H]1[C@@H]2[C@@H](O)C[C@@]2(C)[C@H]1CC[C@]2(O)C(=O)CO` [Prednisolone], the cell viability is reported as 114%. For `C=CCN(C)CCCCCCOc1ccc(C(=O)c2ccc(Br)cc2)c(F)c1.O=C(O)/C=C/C(=O)O` [Ro 48-8071 fumarate], the cell viability was 96.4%.

Same assay, conditions: 10000 nM; 72 h
Work on `CN(Cc1cnc2nc(N)nc(N)c2n1)c1ccc(C(=O)N[C@@H](CCC(=O)O)C(=O)O)cc1` [Methotrexate] yielded a cell viability of 4.58%. Work on `COC(=O)c1cc2c(C(F)(F)F)cc(-c3ccccc3)cc2n1O` [NHI-2] yielded a cell viability of 107%. `CCCCCCCC/C=C\CCCCCCCC(=O)Nc1ccccc1` [Octadec-9-Enoic Acid Phenylamide] showed a cell viability of 108%. `CC[C@H](C)[C@H](N)C(=O)N1CCSC1` [P32/98] showed a cell viability of 91.2%. In the case of `CC(=O)Nc1nc(C)c(-c2ccc(Cl)c(S(=O)(=O)NCCO)c2)s1` [PIK93], the cell viability is reported as 8.96%. Molecule `OC[C@H]1O[C@@H](n2cnc3c2N=CNC[C@H]3O)C[C@@H]1O` [Pentostatin] has a cell viability of 123%. `CC(C)CC(=O)N[C@H](C(=O)N[C@H](C(=O)N[C@@H](CC(C)C)[C@@H](O)CC(=O)N[C@@H](C)C(=O)N[C@@H](CC(C)C)[C@@H](O)CC(=O)O)C(C)C)C(C)C` [Pepstatin A] gave a cell viability of 91.8%. Work on `Cc1cccc(Nc2cc(Cl)nc(SCC(=O)O)n2)c1C` [Pirinixic acid] yielded a cell viability of 102%. Work on `C[C@]12C=CC(=O)C=C1CC[C@@H]1[C@@H]2[C@@H](O)C[C@@]2(C)[C@H]1CC[C@]2(O)C(=O)CO` [Prednisolone] yielded a cell viability of 104%. Work on `C=CCN(C)CCCCCCOc1ccc(C(=O)c2ccc(Br)cc2)c(F)c1.O=C(O)/C=C/C(=O)O` [Ro 48-8071 fumarate] yielded a cell viability of 68.9%.

These molecules were tested on MOLM-13 in the same assay as above. Conditions: 1 nM; 72 h.
Outline: as §1
`CN(Cc1cnc2nc(N)nc(N)c2n1)c1ccc(C(=O)N[C@@H](CCC(=O)O)C(=O)O)cc1` [Methotrexate] gave a cell viability of 88.1%. For `COC(=O)c1cc2c(C(F)(F)F)cc(-c3ccccc3)cc2n1O` [NHI-2], the cell viability was 87%. Molecule `CCCCCCCC/C=C\CCCCCCCC(=O)Nc1ccccc1` [Octadec-9-Enoic Acid Phenylamide] has a cell viability of 106%. `CC[C@H](C)[C@H](N)C(=O)N1CCSC1` [P32/98] was tested, and the cell viability was 84.3%. In the case of `CC(=O)Nc1nc(C)c(-c2ccc(Cl)c(S(=O)(=O)NCCO)c2)s1` [PIK93], the cell viability is reported as 129%. For `OC[C@H]1O[C@@H](n2cnc3c2N=CNC[C@H]3O)C[C@@H]1O` [Pentostatin], the cell viability was 86.9%. `CC(C)CC(=O)N[C@H](C(=O)N[C@H](C(=O)N[C@@H](CC(C)C)[C@@H](O)CC(=O)N[C@@H](C)C(=O)N[C@@H](CC(C)C)[C@@H](O)CC(=O)O)C(C)C)C(C)C` [Pepstatin A] gave a cell viability of 109%. `Cc1cccc(Nc2cc(Cl)nc(SCC(=O)O)n2)c1C` [Pirinixic acid] was tested, and the cell viability was 106%. In the case of `C[C@]12C=CC(=O)C=C1CC[C@@H]1[C@@H]2[C@@H](O)C[C@@]2(C)[C@H]1CC[C@]2(O)C(=O)CO` [Prednisolone], the cell viability is reported as 94.3%. `C=CCN(C)CCCCCCOc1ccc(C(=O)c2ccc(Br)cc2)c(F)c1.O=C(O)/C=C/C(=O)O` [Ro 48-8071 fumarate] showed a cell viability of 132%.

Same assay, conditions: 10 nM; 72 h
`CN(Cc1cnc2nc(N)nc(N)c2n1)c1ccc(C(=O)N[C@@H](CCC(=O)O)C(=O)O)cc1` [Methotrexate] gave a cell viability of 33.1%. With `COC(=O)c1cc2c(C(F)(F)F)cc(-c3ccccc3)cc2n1O` [NHI-2] the cell viability was 80.6%. `CCCCCCCC/C=C\CCCCCCCC(=O)Nc1ccccc1` [Octadec-9-Enoic Acid Phenylamide] was tested, and the cell viability was 90.3%. Molecule `CC[C@H](C)[C@H](N)C(=O)N1CCSC1` [P32/98] has a cell viability of 87.8%. With `CC(=O)Nc1nc(C)c(-c2ccc(Cl)c(S(=O)(=O)NCCO)c2)s1` [PIK93] the cell viability was 111%. `OC[C@H]1O[C@@H](n2cnc3c2N=CNC[C@H]3O)C[C@@H]1O` [Pentostatin] showed a cell viability of 99.7%. `CC(C)CC(=O)N[C@H](C(=O)N[C@H](C(=O)N[C@@H](CC(C)C)[C@@H](O)CC(=O)N[C@@H](C)C(=O)N[C@@H](CC(C)C)[C@@H](O)CC(=O)O)C(C)C)C(C)C` [Pepstatin A] showed a cell viability of 93.8%. `Cc1cccc(Nc2cc(Cl)nc(SCC(=O)O)n2)c1C` [Pirinixic acid] showed a cell viability of 102%. Work on `C[C@]12C=CC(=O)C=C1CC[C@@H]1[C@@H]2[C@@H](O)C[C@@]2(C)[C@H]1CC[C@]2(O)C(=O)CO` [Prednisolone] yielded a cell viability of 96%. Work on `C=CCN(C)CCCCCCOc1ccc(C(=O)c2ccc(Br)cc2)c(F)c1.O=C(O)/C=C/C(=O)O` [Ro 48-8071 fumarate] yielded a cell viability of 113%.

Same assay, conditions: 100 nM; 72 h
For `CN(Cc1cnc2nc(N)nc(N)c2n1)c1ccc(C(=O)N[C@@H](CCC(=O)O)C(=O)O)cc1` [Methotrexate], the cell viability was 0.91%.

From the supplement of paper PMC8671470
